In brackets after ≈: the same amount, converted by molar mass. Activity calls are given as the source filed them. The calls are words filed in the database; no cut-off is given here.
Key:
[1] = tested on: Enterobacter cloacae subsp. dissolvens; assay: Antibacterial activity against Enterobacter dissolvens; assay type: functional
Rhizomucor miehei = assay: Antifungal activity against Mucor miehei; assay type: functional
L1210 = assay: Cytotoxicity against mouse L1210 cells after 48 hrs; assay type: functional, cell-based; details: L1210, 48 h
Paecilomyces variotii = assay: Antifungal activity against Paecilomyces variotii; assay type: functional
Lepidium sativum = assay: Phytotoxicity against Lepidium sativum assessed per disk; assay type: functional, organism-based
Penicillium chrysogenum = assay: Antifungal activity against Penicillium notatum; assay type: functional
Micrococcus luteus = assay: Antibacterial activity against Micrococcus luteus; assay type: functional

| SMILES | Activity [1] | Activity (Rhizomucor miehei) | IC50 (L1210) | Activity (Paecilomyces variotii) | Activity (Lepidium sativum) | Activity (Penicillium chrysogenum) | Activity (Micrococcus luteus) | MIC [1] | MIC (Rhizomucor miehei) | MIC (Paecilomyces variotii) | IC50 (Lepidium sativum) | MIC (Penicillium chrysogenum) | MIC (Micrococcus luteus) |
| --- | --- | --- | --- | --- | --- | --- | --- | --- | --- | --- | --- | --- | --- |
| COC(=O)c1c(OC)c(C)c(OCC=C(C)C)c2c1C(=O)OC2 | inactive | inactive | 25 µg/mL (≈ 78 µM) | inactive | inactive | inactive | inactive | – | – | – | – | – | – |
| COc1cc2c(c(O)c1C)C(=O)CCC2O (stereo unspecified) | – | – | 25 µg/mL (≈ 112 µM) | – | – | – | – | 100 µg/mL (≈ 450 µM) | 100 µg/mL (≈ 450 µM) | 100 µg/mL (≈ 450 µM) | 100 µg | 100 µg/mL (≈ 450 µM) | 100 µg/mL (≈ 450 µM) |
| COc1c(C)c(OCC=C(C)C)c2c(c1C(=O)O)C(=O)OC2 | inactive | inactive | 50 µg/mL (≈ 163 µM) | inactive | inactive | inactive | inactive | – | – | – | – | – | – |

From ChEMBL document CHEMBL1146441, “Naphthalenone and Phthalide Metabolites from Lachnum papyraceum 1” (J Nat Prod, 1997)
